Measured values published in US12251366B1, “Sulforaphane-cysteine for wound healing in diabetic subjects” (KUWAIT UNIVERSITY, priority 2024, dated 2025).

How the values were obtained:
[1] = tested on: Vimentin-TGF-β-Slug signaling pathway; assay: Vimentin-TGF-β-Slug signaling in diabetic wound biopsies; assay type: in vivo, rat; conditions: semi-chronic administration
Excerpt: Although the molecular mechanism by which SFN-Cyst enhanced wound healing potential was not fully explored in this study, it is possible to involve the Vimentin-TGF-β-Slug signaling pathway. Vimentin is an intermediate filament protein that participates in several cellular processes essential for wound healing, including cell proliferation, adhesion, migration and cytoskeletal rearrangement. Moreover, vimentin also amplifies epithelial-mesenchymal-transition via enhancing TGF-β-Slug signaling. […] A similar reduction in TGF-β-Slug signaling level was also evident in this disease state (FIG. 3D).
(§1) Total RNA from cells or frozen sponge implants was extracted using the Trizol reagent (Invitrogen), and the RNA integrity was verified by agarose gel electrophoresis. Approximately 1 μg of RNA was reverse transcribed (Superscript II Reverse Transcriptase Kit, Invitrogen) and amplified using the TaqMan Assay on Demand (Applied Biosystems) in a 25 μL reaction volume containing two unlabeled primers, a 6-carboxyfluorescien-labeled TaqMan MGB probe and the master mix. The amplified sequences were assessed using the ABI 7500 Prism Sequence Detection system machine. The results were expressed as mRNA levels normalized to 18S or GAPDH in each sample.

[2] = tested on: bone marrow-derived macrophages; assay: LPS-induced cytokines in bone marrow-derived macrophages; assay type: cell-based, mouse
Procedure: Additional tests were conducted to determine whether SFN-Cys also suppresses TNF-α and IL-6 expression at the mRNA level. […] Thioglycollate-elicited mouse peritoneal macrophages were prepared from C57BL (8-10 weeks old) and cultured in RPMI 1640 with 10% (v/v) FCS Bone marrow-derived macrophages were generated in RPMI medium containing M-CSF (10 ng/mL) according to previously published procedure. For cytokine ELISA assay, cells were seeded at 5×10^5 in 12-well plates, whereas for mRNA expression, the cells were seeded at […]. LPS and used at a dose of 100 ng/mL. Similarly. SFN-Cys was used at a concentration of 1.5 umol/L.

[3] = tested on: wound fibroblasts (DF, CF-GP); assay: Cell viability assay, H2O2 cytotoxicity in wound fibroblasts; assay type: cell-based, rat; conditions: 1.5 to 5 μM
Procedure: To determine if SFN-Cys is involved in cellular detoxification of oxidant load, wound fibroblasts derived from the granulation tissue of control and diabetic animals with H2O2 were measured for their abilities to survive acute oxidative stress in the presence or absence of SFN-Cys. […] Moreover, CF exposed for 72 hours to high glucose (25 mmole/L and palmitate 200 μmole/L, CF-GP) to mimic the diabetic state produced analogous results to those seen with DF as illustrated in FIG. 2A. Supplementing DF and CF-GP with SFN-Cys at a dose of 1.5 to 5 μM eliminated the reactive oxygen species difference between these cells and enhanced DF and CF-GP resistance to H2O2(FIG. 2A).
Control and diabetic fibroblasts were isolated from wounds inflicted on control Wistar rats (CF) or Goto kakazaki rats (GK), a model of non-obese type 2 diabetes. All information regarding the GK rats and the preparation and culturing of control (CF) and diabetic (DF) fibroblasts was described in detailed in previous publications, Bitar, M S, and Mulla, F. Am J Phyaiol. […]
The response of CF and DF to H2O2 cytotoxicity was measured by seeding the cells into 96-well plates at a density of 5×10^3 to 8×10^3 cells per well and were allowed to adhere overnight in 10% FCS-DMEM medium. […] Cell viability was measured using WST-1 (Dojindo, USA;) according to the manufacturer's instructions.

TNF-α = assay: Real-time PCR, LPS-induced TNF-α mRNA in peritoneal macrophages; assay type: cell-based, mouse; conditions: LPS 100 ng/mL, 1.5 umol/L, RT-PCR
Procedure: Additional tests were conducted to determine whether SFN-Cys also suppresses TNF-α and IL-6 expression at the mRNA level.
Thioglycollate-elicited mouse peritoneal macrophages were prepared from C57BL (8-10 weeks old) and cultured in RPMI 1640 with 10% (v/v) FCS Bone marrow-derived macrophages were generated in RPMI medium containing M-CSF (10 ng/mL) according to previously published procedure. For cytokine ELISA assay, cells were seeded at 5×10^5 in 12-well plates, whereas for mRNA expression, the cells were seeded at […]. LPS and used at a dose of 100 ng/mL. Similarly. SFN-Cys was used at a concentration of 1.5 umol/L.
as §1

[4] = Toxicity assessment of chronically administered SFN-Cys (body weight, behavior); assay type: in vivo, mouse; conditions: mice, 21 days
Procedure: Testing the pharmacodynamic and toxicodynamic properties of SFN-Cys dictated the mixing SFN-Cys with a powdered diet. The estimated dose delivered by this diet was 1.5-2.5 μmol/mouse (n=4). The SFN-Cys diet was stored at 4° C. and the feeders were refilled daily for the duration of the study (21 days). Corresponding animals received food without the drug.
To strengthen this conclusion, extensive measurements were conducted on plasma levels of key parameters of kidney and liver toxicities in addition to the lipid and carbohydrate profiles.
For dietary treatment with SFN-Cys, the SFN-Cys was mixed with a powdered diet (7.5 mg of SFN-Cys per kg of food). The estimated dose delivered by this diet was about 1.0-1.5 mg/kg. The diet was stored at 4° C. and the feeders were refilled daily. Control animals received diet alone. Body weights were recorded twice a week and at the termination of the study, blood was drawn in EDTA-containing tubes, plasma was collected by centrifugation and stored at −80° C. until analysis.

endothelial nitric oxide = assay: Endothelial nitric oxide activity and expression in corpus cavernosum; assay type: in vivo
Excerpt: Therapeutic rational was considered for SFN-Cys effectiveness in the following pathological conditions: Sarcopenia-SFN-Cys increased muscle weight in diabetic mice, see FIGS. 4A and 4B; Cardiac fibrosis-SFN-Cys inhibits transforming growth factor beta (TGF-β) expression, see FIG. 4C; Erectile dysfunction-SFN-Cys increased endothelial nitric oxide activity and expression in corpus cavernosum.

Structure (SMILES): C[S+]([O-])CCCCNC(=S)SCC(N)C(=O)O (centres unmarked) [SFN-Cys, Sulforaphane-Cysteine]
- deficit in Vimentin-TGF-β-Slug signaling [1]: ameliorated
- suppression of LPS-induced TNF-α and IL-6 in bone marrow-derived macrophages [2]: analogous results were also seen
- reactive oxygen species difference between DF/CF-GP and control fibroblasts [3]: eliminated
- resistance to H2O2 (cell viability) ([3]; DF and CF-GP, H2O2 400 μmol/L 4 hours, WST-1): enhanced
- LPS-induced TNF-α mRNA up-regulation (TNF-α): significantly inhibited
- body weight ([4]; SFN-Cys diet, in g (unit assumed)): 22.7±3.2
- signs of adverse effect (body weight and behavior) ([4]; chronic SFN-Cys diet): no obvious signs of adverse effect
- endothelial nitric oxide activity and expression (endothelial nitric oxide): increased
